{"source": "paper PMC12527977", "about": "“Discovery of a novel tetrapeptide as glucose homeostasis modulator with bifunctionalities of targeting DPP‐IV and microbiota” (iMeta, 2025)", "key": {"DPP-IV [1]": {"target": "T1, DPP-IV (Homo sapiens, UniProt P27487)", "assay": "DPP-IV inhibitory activity of peptides (DPP-IV-Glo Protease Assay Kit)", "format": "biochemical", "parameters": "purchased QiZheng Biotech (Shanghai, China) IBDPP0901", "settings": "for DPP-IV inhibitory activity: DPP-IV-Glo Protease Assay Kit, control = 0, sheet S2F, in % (unit assumed)"}, "in vitro [2]": {"assay": "in vitro", "format": "in vitro ADME, Akkermansia muciniphila", "settings": "cells or culture medium, VAMP remaining, incubated with A. muciniphila", "text": "(§1) The levels of VAMP at different time points were quantified by targeted metabolomics."}, "[3]": {"test_system": "faeces-derived bacterial community", "assay": "in vitro", "format": "in vitro ADME", "text": "as §1"}, "in vitro [4]": {"assay": "in vitro", "format": "in vitro ADME", "settings": "cells or culture medium, VAMP (%) remaining", "text": "as §1"}, "DPP-IV [5]": {"target": "T1, DPP-IV", "assay": "Surface plasmon resonance (Biacore 8K, CM5 chip, 25 °C)", "format": "binding", "parameters": "purchased QiZheng Biotech (Shanghai, China) IBDPP0901", "settings": "SPR, Table S3; read-out: KD values"}, "DPP-IV [6]": {"target": "T1, DPP-IV", "assay": "DPP-IV inhibition in iPSC-induced intestinal organoids (supernatant, DPP-IV-Glo kit)", "format": "cell-based", "parameters": "endogenous in cells; host or cells: iPSC-induced intestinal organoids", "settings": "Fig 1R, 24 h, read-out: Inhibitory effect on DPP-IV; for inhibition at 100 µg/mL: VAMP 100 μg/mL; for inhibition at 200 µg/mL: VAMP 200 μg/mL; for inhibition at 500 µg/mL: VAMP 500 μg/mL", "text": "iPSC-induced intestinal organoids were established according to the manufacturer’s instructions (STEMdiff^TM Intestinal Organoid kit)."}, "[7]": {"test_system": "porcine pepsase and trypsase", "assay": "Simulated digestive stability of peptides (pepsase then trypsase)", "format": "in vitro ADME", "settings": "in words; 5.0 mg/mL peptide, pepsase 5000 U/mL pH 3.0 37 °C 2 h, then trypsase 100 U/mL pH 7.0 37 °C 2 h, LC-MS", "procedure": "The in vitro digestibility of the peptides was determined according to the method described by Ohanenye et al. with some modifications. Briefly, 5.0 mg/mL peptides were mixed with 5000 U/mL porcine pepsase (pH 3.0). The mixture was incubated with continuous shaking in a water bath at 37 ℃ for 2 h. Then, the mixture was adjusted to pH 7.0, and a final concentration of 100 U/mL trypsase was added, followed by continuous shaking at 37 ℃ for another 2 h. After digestion, the enzyme was inactivated, and the mixture was incubated in a water bath (100 ℃) for 20 min. Subsequently, the mixture was centrifuged at 6000 rpm for 20 min, after which the supernatants were collected for further analysis. The concentrations of peptides in the digestions and TPH were determined via AB SCIEX QTrap 6600+ (AB Sciex, Framingham, Massachusetts)."}, "[8]": {"assay": "Blood pharmacokinetics of VAMP, 10 mg/kg i.v. or p.o.", "format": "in vivo", "settings": "mouse, po", "procedure": "FIGURE 2 VAMP inhibits intestinal dipeptidyl peptidase IV (DPP‐IV) and increases the abundance of A. muciniphila. (A) The experimental scheme for (B–O) is shown, n = 6 mice/group. HFD‐fed mice were treated with PBS (vehicle group) or VAMP (50 mg/kg, VAMP group) for 8 weeks by oral gavage. (B) The body weight change, (C) FBG level, (D) intestinal active GLP‐1 levels, (E) plasma active GLP‐1 levels, (F) OGTT curve, (G) AUC of the OGTT, and (H) HOMA‐IR index were evaluated. (I) Intestinal permeability was measured by plasma fluorescence intensity after gavage with FITC‐dextran 4000. (J) The plasma levels of LPS, (K) TNF‐α, and (L) IL‐1β were determined. (M) Carnoy‐fixed colonic tissue sections were stained with Alcian blue/periodic acid‐Schiff. Scale bars, 100 µm. […] (O) The relative expression of Tjp1, Ocln, Cldn1, Cldn3, Cldn4, Cldn5, and Muc2 mRNAs in colonic tissue was determined. (P) The blood pharmacokinetics of 10 mg/kg VAMP administered by injection (i.v.) or gavage (p.o.) over time were evaluated. (Q) The tissue distribution of VAMP at the time of peak plasma concentration (30 min) after the administration of 10 mg/kg VAMP by gavage was determined (n = 4). […] (U) The change in bacterial abundance at the species level after VAMP treatment was determined via random forest analysis. […]\nWe first determined the VAMP metabolic kinetics in model mice."}}, "note": "Where two headings read alike, the source gives them in different places. Where a SMILES comes first, the peptide text is derived from it.", "data": [{"smiles": "CSCC[C@H](NC(=O)[C@H](C)NC(=O)[C@@H](N)C(C)C)C(=O)N1CCC[C@H]1C(=O)O", "note": "[VAMP] (H-VAMP-OH)", "values": [{"measurement": "inhibition at 1 µg/mL", "setting": "DPP-IV [1]", "value": 50.7, "unit": "%"}, {"measurement": "inhibition at 20 µg/mL", "setting": "DPP-IV [1]", "value": 52.1, "unit": "%"}, {"measurement": "inhibition at 50 µg/mL", "setting": "DPP-IV [1]", "value": 68.9, "unit": "%"}, {"measurement": "inhibition at 100 µg/mL", "setting": "DPP-IV [1]", "value": 77.6, "unit": "%"}, {"measurement": "inhibition at 200 µg/mL", "setting": "DPP-IV [1]", "value": 81.5, "unit": "%"}, {"measurement": "DPP-IV inhibitory activity", "setting": "DPP-IV [1]; replicate 1", "value": 68.9829}, {"measurement": "DPP-IV inhibitory activity", "setting": "DPP-IV [1]; replicate 2", "value": 67.7707}, {"measurement": "DPP-IV inhibitory activity", "setting": "DPP-IV [1]; replicate 3", "value": 61.9665}, {"measurement": "IC50", "setting": "DPP-IV [1]; Table S3, read-out: IC50", "value": 1, "unit": "µM"}, {"measurement": "remaining at 3 h, 100 μM", "setting": "in vitro [2]; time 3", "value": 98.6, "unit": "%"}, {"measurement": "remaining at 6 h, 100 μM", "setting": "in vitro [2]; time 6", "value": 95.4, "unit": "%"}, {"measurement": "remaining at 9 h, 100 μM", "setting": "in vitro [2]; time 9", "value": 93.3, "unit": "%"}, {"measurement": "remaining at 12 h, 100 μM", "setting": "in vitro [2]; time 12", "value": 79.6, "unit": "%"}, {"measurement": "remaining at 24 h, 100 μM", "setting": "in vitro [2]; time 24", "value": 28.1, "unit": "%"}, {"measurement": "remaining at 36 h, 100 μM", "setting": "in vitro [2]; time 36", "value": 21.4, "unit": "%"}, {"measurement": "remaining at 48 h, 100 μM", "setting": "in vitro [2]; time 48", "value": 19.3, "unit": "%"}, {"measurement": "Degradation of VAMP in faeces-derived microbial community culture", "setting": "[3]", "value": "degraded by gut microbiota"}, {"measurement": "remaining at 3 h, 100 μM", "setting": "in vitro [4]; 3 h", "value": 98.5, "unit": "%"}, {"measurement": "remaining at 6 h, 100 μM", "setting": "in vitro [4]; 6 h", "value": 84.6, "unit": "%"}, {"measurement": "remaining at 12 h, 100 μM", "setting": "in vitro [4]; 12 h", "value": 51.7, "unit": "%"}, {"measurement": "remaining at 36 h, 100 μM", "setting": "in vitro [4]; 36 h", "value": 2.1, "unit": "%"}, {"measurement": "remaining at 48 h, 100 μM", "setting": "in vitro [4]; 48 h", "value": 0, "unit": "%"}, {"measurement": "Kd", "setting": "DPP-IV [5]", "value": 6.89, "unit": "µM"}, {"measurement": "inhibition at 100 µg/mL", "setting": "DPP-IV [6]; replicate 1", "value": 72.5, "unit": "%"}, {"measurement": "inhibition at 100 µg/mL", "setting": "DPP-IV [6]; replicate 2", "value": 69.3, "unit": "%"}, {"measurement": "inhibition at 100 µg/mL", "setting": "DPP-IV [6]; replicate 3", "value": 50.4, "unit": "%"}, {"measurement": "inhibition at 200 µg/mL", "setting": "DPP-IV [6]; replicate 1", "value": 82.5, "unit": "%"}, {"measurement": "inhibition at 200 µg/mL", "setting": "DPP-IV [6]; replicate 2", "value": 80.3, "unit": "%"}, {"measurement": "inhibition at 200 µg/mL", "setting": "DPP-IV [6]; replicate 3", "value": 84.2, "unit": "%"}, {"measurement": "inhibition at 500 µg/mL", "setting": "DPP-IV [6]; replicate 1", "value": 92.1, "unit": "%"}, {"measurement": "inhibition at 500 µg/mL", "setting": "DPP-IV [6]; replicate 2", "value": 89.1, "unit": "%"}, {"measurement": "inhibition at 500 µg/mL", "setting": "DPP-IV [6]; replicate 3", "value": 84.8, "unit": "%"}, {"measurement": "Resistance to simulated gastric pepsase and trypsase digestion", "setting": "[7]", "value": "readily resistant"}, {"measurement": "bioavailability", "setting": "[8]; blood, mice, 10 mg/kg p.o. vs i.v., printed in picture Fig 2P", "value": 10.5, "unit": "%"}, {"measurement": "Tmax", "setting": "[8]; plasma, 10 mg/kg by gavage, read-out: Time of peak plasma concentration (converted)", "value": 30, "unit": "min"}]}]}
